Drawing on US20250188110A1, “SPECIFIC SMALL MOLECULE INHIBITORS THAT BLOCK KMT9 METHYLTRANSFERASE ACTIVITY AND FUNCTION” (ALBERT-LUDWIGS-UNIVERSITÄT FREIBURG, priority 2021, published 2025), this text covers IC50, ΔTm and Kd for 18 compounds.

Like-named read-outs stand apart in the source and are kept apart here. A value given as a limit tells only on which side of the number the result lay.

The target of experiment [1] is T1, KMT9 (Homo sapiens, UniProt Q9Y5N5).
T1 sequence (Q9Y5N5 1-214): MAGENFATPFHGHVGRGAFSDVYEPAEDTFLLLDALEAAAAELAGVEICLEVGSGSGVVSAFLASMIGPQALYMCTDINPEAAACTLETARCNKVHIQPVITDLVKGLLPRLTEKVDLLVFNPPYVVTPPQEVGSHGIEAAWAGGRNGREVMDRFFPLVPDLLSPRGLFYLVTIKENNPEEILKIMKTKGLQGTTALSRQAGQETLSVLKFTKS
T1 sequence (Q9UI30 1-120 isoform Q9UI30-2 partner): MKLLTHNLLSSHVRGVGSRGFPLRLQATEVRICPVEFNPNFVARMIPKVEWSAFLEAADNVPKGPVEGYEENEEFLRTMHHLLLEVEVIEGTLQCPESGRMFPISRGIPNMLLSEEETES
Nature of the experiment: KMT9 methyltransferase inhibition assay, MTaseGlo luminescence (from entry 155). The class given is biochemical. To be noted: 100 nM KMT9, 5 μM ETF1, 1 μM SAM. In a few lines:
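KMT9 (100 nM final) pre-incubated with inhibitor for 15 min at room temperature, then reacted with 5 μM ETF1 and 1 μM SAM for 2 h at 30° C. at 2% DMSO final. MTaseGlo luminescence read after 60 min detection; IC50 reported in four potency bins.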

Experiment [2] deals with T1, KMT9. Nature of the experiment: KMT9 thermal shift assay (SyproOrange). The experiment is classed as binding. The essentials: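 ΔTm versus DMSO-only control is reported in bins (>20 K, 15–20 K, 10–15 K, ≤10 K), using Tm from Boltzmann sigmoidal fits of SyproOrange melt curves. KMT9 with compound in pH 8.5 BTP buffer containing MgCl2 and DTT was preincubated at 25° C, then ramped 1° C per 15 s up to 95° C.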

Experiment [3] deals with T1, KMT9. Nature of the experiment: Microscale thermophoresis (MST) KMT9 binding. The essentials: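 Kd from microscale thermophoresis: compound series against 20 nM His-KMT9 labelled via RED-Tris-NTA, buffer 25 mM HEPES (pH 7.5)/100 mM NaCl/1 mM DTT/0.05% Tween, 40% MST power, 100% LED. Reported as classes: A ≤10 nM, B >10–100 nM, C >100–1000 nM, D >1000 nM.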
Where [4] appears, read: MTaseGlo procedure (entries from 155), read-out: Inhibition (IC50).
The mark [5] stands for this setting: 500 µM compound, 2 μM KMT9, read-out: Thermal shift (ΔTm).
The mark [6] stands for this setting: His-tag labelled KMT9 20 nM, read-out: MST (Kd).
Setting [7] is: IC50 class, MTaseGlo procedure (entries from 155 on), read-out: Inhibition.
The mark [8] stands for this setting: ΔTm class, 500 uM compound, 2 μM KMT9, read-out: Thermal shift.
Setting [9] is: His-tag labelled KMT9 20 nM, Kd class, read-out: MST.
Where [10] appears, read: from entry 155: MTaseGlo assay, read-out: Inhibition.
Setting [11] is: ΔTm, 500 µM compound, 2 μM KMT9, 5X SO, read-out: Thermal shift.
Setting [12] is: microscale thermophoresis, His-tag labelled KMT9 (20 nM), read-out: MST.

`Nc1nc(Cl)nc2c1c(-c1nc(Cc3ccccc3)cs1)cn2[C@@H]1C[C@H](C2CCN(Cc3ccn[nH]3)CC2)[C@@H](O)[C@H]1O` [Compound 524, (1R,2S,3R,5R)-3-[4-amino-5-(4-benzyl-1,3-thiazol-2-yl)-2-chloropyrrolo[2,3-d]pyrimidin-7-yl]-5-[1-(2H-pyrazol-3-ylmethyl)piperidin-4-yl]cyclopentane-1,2-diol]: the IC50 in experiment [1] (setting [4]) was 100 to 1000 nM. In addition, the ΔTm at 500 µM in experiment [2] (setting [5]) lay in the range of 15 to 20 °C. Further, in experiment [3] (setting [6]), the Kd was 10 to 100 nM.

For `CC(C)N1CCC([C@H]2C[C@@H](n3cc(-c4nc(Cc5ccccc5)cs4)c4c(N)nc(Cl)nc43)[C@H](O)[C@@H]2O)CC1` [Compound 506, (1R,2S,3R,5R)-3-[4-amino-5-(4-benzyl-1,3-thiazol-2-yl)-2-chloropyrrolo[2,3-d]pyrimidin-7-yl]-5-(1-isopropylpiperidin-4-yl)cyclopentane-1,2-diol], the IC50 in experiment [1] (setting [7]) fell in the range of 100 to 1000 nM. Further, the ΔTm at 500 µM in experiment [2] (setting [8]) was greater than 20 °C. Moreover, the Kd in experiment [3] (setting [9]) was no more than 10 nM.

Turning to `O[C@@H]1[C@@H](CN(CCCNCCc2ccccc2)c2cn[nH]c2)C[C@@H](n2cc(-c3cccs3)c3cncnc32)[C@@H]1O` [Compound 616], the IC50 in experiment [1] (setting [10]) lay within 1000 to 10000 nM. Also, in experiment [2] (setting [11]), the ΔTm at 500 µM fell in the range of 10 to 15 °C. Also, in experiment [3] (setting [12]), the Kd was 10 to 100 nM.

`Nc1ncnc2c1c(-c1nc(Cc3ccccc3)cs1)cn2[C@@H]1C[C@H](C2=CCCNC2)[C@@H](O)[C@H]1O` [Compound 503, (1R,2S,3R,5R)-3-(4-amino-5-(4-benzylthiazol-2-yl)-7H-pyrrolo[2,3-d]pyrimidin-7-yl)-5-(1,2,5,6-tetrahydropyridin-3-yl)cyclopentane-1,2-diol]: the IC50 in experiment [1] (setting [10]) was 1000 to 10000 nM. The ΔTm at 500 µM in experiment [2] (setting [11]) was 15 to 20 °C. In experiment [3] (setting [12]), the Kd was 100 to 1000 nM.

Turning to `Nc1nc(Cl)nc2c1c(-c1ccn(S(=O)(=O)c3ccccc3)n1)cn2[C@@H]1C[C@H](C2CCN(CCc3ccccc3)CC2)[C@@H](O)[C@H]1O` [Compound 519, (1R,2S,3R,5R)-3-{4-amino-5-[1-(benzenesulfonyl)pyrazol-3-yl]-2-chloropyrrolo[2,3-d]pyrimidin-7-yl}-5-[1-(2-phenylethyl)piperidin-4-yl]cyclopentane-1,2-diol], the IC50 in experiment [1] (setting [4]) was 100 to 1000 nM. Also, in experiment [2] (setting [5]), the ΔTm at 500 µM was greater than 20 °C. Moreover, the Kd in experiment [3] (setting [6]) was no more than 10 nM.

As for `Nc1ncnc2c1c(-c1nc(Cc3ccccc3)cs1)cn2[C@@H]1C[C@H]([C@H]2CCNC2)[C@@H](O)[C@H]1O` [Compound 589R, (1R,2S,3R,5R)-3-[4-Amino-5-(4-benzyl-1,3-thiazol-2-yl)pyrrolo[2,3-d]pyrimidin-7-yl]-5-[(3R)-pyrrolidin-3-yl]cyclopentane-1,2-diol], the IC50 in experiment [1] (setting [7]) was 1000 to 10000 nM. Moreover, in experiment [2] (setting [8]), the ΔTm at 500 µM lay in the range of 10 to 15 °C. In experiment [3] (setting [9]), the Kd was 100 to 1000 nM.

Take `O[C@@H]1[C@@H](CNCCCNCCc2ccccc2)C[C@@H](n2cc(-c3nccs3)c3cnc(Cl)nc32)[C@@H]1O` [Compound 638, (1R,2S,3R,5R)-3-(2-Chloro-5-(thiazol-2-yl)-7H-pyrrolo[2,3-d]pyrimidin-7-yl)-5-(((3-(phenethylamino)propyl)amino)methyl)cyclopentane-1,2-diol]: the IC50 in experiment [1] (setting [10]) lay in the range of 1000 to 10000 nM. For the same compound, the ΔTm at 500 µM in experiment [2] (setting [11]) fell in the range of 15 to 20 °C. Besides, in experiment [3] (setting [12]), the Kd fell in the range of 100 to 1000 nM.

Turning to `Nc1ncnc2c1c(-c1nccs1)cn2[C@@H]1C[C@H](c2cc(Cl)cc(Cl)c2)[C@@H](O)[C@H]1O` [Compound 394, (1R,2S,3R,5R)-3-(4-amino-5-(thiazol-2-yl)-7H-pyrrolo[2,3-d]pyrimidin-7-yl)-5-(3,5-dichlorophenyl) cyclo-pentane-1,2-diol], the IC50 in experiment [1] (setting [10]) is greater than 10000 nM. Also, the ΔTm at 500 µM in experiment [2] (setting [11]) is no more than 10 °C. Also, the Kd in experiment [3] (setting [12]) is greater than 1000 nM.

As to `NCc1cccc([C@H]2C[C@@H](n3cc(Br)c4c(N)nc(Cl)nc43)[C@H](O)[C@@H]2O)c1` [Compound 393, (1R,2S,3R,5R)-3-(4-amino-5-bromo-2-chloro-7H-pyrrolo[2,3-d]pyrimidin-7-yl)-5-(3-(aminomethyl)phen-yl) cyclopentane-1,2-diol], the IC50 in experiment [1] (setting [4]) was 100 to 1000 nM. For the same compound, the ΔTm at 500 µM in experiment [2] (setting [5]) was 15 to 20 °C. In addition, the Kd in experiment [3] (setting [6]) was no more than 10 nM.

With `O[C@@H]1[C@H](O)[C@@H](C2=CCCN(CCc3ccccc3)C2)C[C@H]1n1cc(-c2nc(Cc3ccccc3)cs2)c2cnc(Cl)nc21` [Compound 588, (1R,2S,3R,5R)-3-[5-(4-Benzyl-1,3-thiazol-2-yl)-2-chloropyrrolo[2,3-d]pyrimidin-7-yl]-5-[1-(2-phenylethyl)-5,6-dihydro-2H-pyridin-3-yl]cyclopentane-1,2-diol], the IC50 in experiment [1] (setting [7]) is greater than 10000 nM. Moreover, the ΔTm at 500 µM in experiment [2] (setting [8]) is no more than 10 °C. Moreover, the Kd in experiment [3] (setting [9]) was greater than 1000 nM.

Take `Nc1ncnc2c1ccn2[C@@H]1C[C@H](c2cccc(-c3cccnc3)c2)[C@@H](O)[C@H]1O` [Compound 649, (1R,2S,3R,5R)-3-(4-amino-7H-pyrrolo[2,3-d]pyrimidin-7-yl)-5-(3-(pyridin-3-yl)phenyl)cyclopentane-1,2-diol]: the IC50 in experiment [1] (setting [7]) was greater than 10000 nM. Further, the ΔTm at 500 µM in experiment [2] (setting [8]) was no more than 10 °C. Besides, the Kd in experiment [3] (setting [9]) is greater than 1000 nM.

For `Nc1cc(-c2cnsc2)cc([C@H]2C[C@@H](n3ccc4c(N)nc(Cl)nc43)[C@H](O)[C@@H]2O)c1` [Compound 681, (1R,2S,3R,5R)-3-(4-Amino-2-chloro-7H-pyrrolo[2,3-d]pyrimidin-7-yl)-5-(3-amino-5-(isothiazol-4-yl)phenyl)cyclopentane-1,2-diol], the IC50 in experiment [1] (setting [4]) is 100 to 1000 nM. The ΔTm at 500 µM in experiment [2] (setting [5]) was in the range of 10 to 15 °C. Besides, the Kd in experiment [3] (setting [6]) lay in the range of 10 to 100 nM.

For `Nc1nc(Cl)nc2c1c(Br)cn2[C@@H]1C[C@H](CN(CCCNCCc2ccc(F)cc2)c2cn[nH]c2)[C@@H](O)[C@H]1O` [Compound 538, (1R,2S,3R,5R)-3-(4-amino-5-bromo-2-chloro-7H-pyrrolo[2,3-d]pyrimidin-7-yl)-5-(((3-((4-fluorophenethyl)amino)propyl)(1H-pyrazol-4-yl)amino)methyl)cyclopentane-1,2-diol], the IC50 in experiment [1] (setting [4]) was 100 to 1000 nM. Besides, the ΔTm at 500 µM in experiment [2] (setting [5]) lay within 15 to 20 °C. Moreover, the Kd in experiment [3] (setting [6]) was no more than 10 nM.

As to `COc1cc(CN)cc([C@H]2C[C@@H](n3ccc4c(N)nc(Cl)nc43)[C@H](O)[C@@H]2O)c1` [Compound 665, (1R,2S,3R,5R)-3-(4-amino-2-chloro-7H-pyrrolo[2,3-d]pyrimidin-7-yl)-5-(3-(aminomethyl)-5-methoxyphenyl)cyclopentane-1,2-diol], the IC50 in experiment [1] (setting [4]) is 100 to 1000 nM. In experiment [2] (setting [5]), the ΔTm at 500 µM lay in the range of 15 to 20 °C. In addition, the Kd in experiment [3] (setting [6]) was no more than 10 nM.

With `Nc1nc(Cl)nc2c1c(-c1nc(Cc3ccccc3)cs1)cn2[C@@H]1C[C@H](CNCCCNCCc2ccc(F)cc2)[C@@H](O)[C@H]1O` [Compound 646, (1R,2S,3R,5R)-3-(4-Amino-5-(4-benzylthiazol-2-yl)-2-chloro-7H-pyrrolo[2,3-d]pyrimidin-7-yl)-5-(((3-((4-fluorophenethyl)amino)propyl)amino)methyl)cyclopentane-1,2-diol], the IC50 in experiment [1] (setting [7]) was 100 to 1000 nM. In experiment [2] (setting [8]), the ΔTm at 500 µM was greater than 20 °C. Further, the Kd in experiment [3] (setting [9]) fell in the range of 10 to 100 nM.

As for `CC(=O)c1cccc([C@H]2C[C@@H](n3ccc4c(N)ncnc43)[C@H](O)[C@@H]2O)c1` [Compound 408, 1-(3-((1R,2R,3S,4R)-4-(4-amino-7H-pyrrolo[2,3-d]pyrimidin-7-yl)-2,3-dihydroxycyclopentyl)phenyl)ethan-1-one], the IC50 in experiment [1] (setting [4]) was greater than 10000 nM. For the same compound, in experiment [2] (setting [5]), the ΔTm at 500 µM was no more than 10 °C. Further, in experiment [3] (setting [6]), the Kd was greater than 1000 nM.

With `CS(=O)(=O)n1ccc(-c2cn([C@@H]3C[C@H](CNCCCNCCc4ccccc4)[C@@H](O)[C@H]3O)c3ncncc23)n1` [Compound 640, (1R,2S,3R,5R)-3-(5-(1-(Methylsulfonyl)-1H-pyrazol-3-yl)-7H-pyrrolo[2,3-d]pyrimidin-7-yl)-5-(((3-(phenethylamino)propyl)amino)methyl)cyclopentane-1,2-diol], the IC50 in experiment [1] (setting [10]) lay within 1000 to 10000 nM. Further, the ΔTm at 500 µM in experiment [2] (setting [11]) lay in the range of 10 to 15 °C. Further, in experiment [3] (setting [12]), the Kd is greater than 1000 nM.

Turning to `Nc1nc(Cl)nc2c1c(-c1nc(Cc3ccccc3)cs1)cn2[C@@H]1C[C@H](C2CCN(Cc3ccco3)CC2)[C@@H](O)[C@H]1O` [Compound 525, (1R,2S,3R,5R)-3-(4-amino-5-(4-benzylthiazol-2-yl)-2-chloro-7H-pyrrolo[2,3-d]pyrimidin-7-yl)-5-(1-(furan-2-ylmethyl)piperidin-4-yl)cyclopentane-1,2-diol], the IC50 in experiment [1] (setting [4]) fell in the range of 1000 to 10000 nM. For the same compound, the ΔTm at 500 µM in experiment [2] (setting [5]) lay within 15 to 20 °C. For the same compound, the Kd in experiment [3] (setting [6]) is no more than 10 nM.
